In US20260207585A1, “METHODS AND COMPOSITIONS FOR THE TREATMENT OF PARKINSON'S DISEASE, HUNTINGTON'S DISEASE, AMYOTROPHIC LATERAL SCLEROSIS, AND LEARNING DISORDERS” (Cedars-Sinai Medical Center, priority 2022, published 2026):
Read-outs that look alike come from different tables or passages of the source.

Experiments:
Type in all cases: biochemical
[1] = biological target: T1, NSD3 (Homo sapiens, UniProt Q9BZ95); test: Methyltransferase inhibition panel: NSD3
T1 sequence (Q9BZ95 1-1437): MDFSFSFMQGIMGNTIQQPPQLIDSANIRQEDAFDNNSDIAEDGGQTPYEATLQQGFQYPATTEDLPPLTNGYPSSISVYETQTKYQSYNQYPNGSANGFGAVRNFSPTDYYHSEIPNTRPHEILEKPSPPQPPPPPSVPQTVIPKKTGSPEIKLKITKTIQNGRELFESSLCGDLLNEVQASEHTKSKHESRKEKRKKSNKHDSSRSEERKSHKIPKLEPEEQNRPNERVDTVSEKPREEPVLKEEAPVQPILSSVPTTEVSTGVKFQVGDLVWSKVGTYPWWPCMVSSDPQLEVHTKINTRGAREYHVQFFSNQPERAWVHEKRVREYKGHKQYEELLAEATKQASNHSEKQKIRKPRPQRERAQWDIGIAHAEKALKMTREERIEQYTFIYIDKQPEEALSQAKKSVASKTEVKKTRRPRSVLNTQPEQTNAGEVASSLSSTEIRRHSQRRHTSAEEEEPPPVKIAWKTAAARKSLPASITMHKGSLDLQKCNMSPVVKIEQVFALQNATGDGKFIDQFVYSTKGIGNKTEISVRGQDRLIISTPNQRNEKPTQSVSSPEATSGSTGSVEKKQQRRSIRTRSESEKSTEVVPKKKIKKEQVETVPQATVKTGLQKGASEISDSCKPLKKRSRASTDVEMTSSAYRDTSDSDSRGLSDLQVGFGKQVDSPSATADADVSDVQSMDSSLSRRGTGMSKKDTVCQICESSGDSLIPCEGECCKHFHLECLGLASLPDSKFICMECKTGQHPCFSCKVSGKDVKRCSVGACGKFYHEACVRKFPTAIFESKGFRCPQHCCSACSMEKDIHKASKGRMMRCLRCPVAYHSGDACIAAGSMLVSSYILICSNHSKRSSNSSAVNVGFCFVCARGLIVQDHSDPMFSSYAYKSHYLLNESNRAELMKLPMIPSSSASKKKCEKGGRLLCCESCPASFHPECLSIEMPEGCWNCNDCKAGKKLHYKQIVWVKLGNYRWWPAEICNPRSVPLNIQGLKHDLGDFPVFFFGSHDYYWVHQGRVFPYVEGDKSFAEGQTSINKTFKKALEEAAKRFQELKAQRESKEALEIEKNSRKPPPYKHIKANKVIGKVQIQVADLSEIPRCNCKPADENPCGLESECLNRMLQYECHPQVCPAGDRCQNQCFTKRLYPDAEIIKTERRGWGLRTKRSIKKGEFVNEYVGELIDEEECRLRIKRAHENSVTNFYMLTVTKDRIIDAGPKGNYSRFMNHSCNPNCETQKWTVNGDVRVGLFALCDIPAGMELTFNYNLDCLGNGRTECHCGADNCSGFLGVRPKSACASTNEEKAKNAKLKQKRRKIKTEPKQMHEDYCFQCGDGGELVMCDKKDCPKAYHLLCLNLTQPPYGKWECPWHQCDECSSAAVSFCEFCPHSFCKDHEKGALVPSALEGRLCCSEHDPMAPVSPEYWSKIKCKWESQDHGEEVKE
Experimental: (§1) The ability of ETP69 to inhibit methyltransferases was tested.

[2] = biological target: SETDB1 (Homo sapiens, UniProt Q15047); test: Methyltransferase inhibition panel: SETDB1
Experimental: as §1

[3] = biological target: PRMT4 (Homo sapiens, UniProt Q86X55); test: Methyltransferase inhibition panel: PRMT4
Experimental: as §1

[4] = biological target: DOT1L (Homo sapiens, UniProt Q8TEK3); test: Methyltransferase inhibition panel: DOT1L
Experimental: as §1

[5] = biological target: T2, GLP (Homo sapiens, UniProt Q9H9B1); test: Methyltransferase inhibition panel: GLP
T2 sequence (Q9H9B1 1-1298): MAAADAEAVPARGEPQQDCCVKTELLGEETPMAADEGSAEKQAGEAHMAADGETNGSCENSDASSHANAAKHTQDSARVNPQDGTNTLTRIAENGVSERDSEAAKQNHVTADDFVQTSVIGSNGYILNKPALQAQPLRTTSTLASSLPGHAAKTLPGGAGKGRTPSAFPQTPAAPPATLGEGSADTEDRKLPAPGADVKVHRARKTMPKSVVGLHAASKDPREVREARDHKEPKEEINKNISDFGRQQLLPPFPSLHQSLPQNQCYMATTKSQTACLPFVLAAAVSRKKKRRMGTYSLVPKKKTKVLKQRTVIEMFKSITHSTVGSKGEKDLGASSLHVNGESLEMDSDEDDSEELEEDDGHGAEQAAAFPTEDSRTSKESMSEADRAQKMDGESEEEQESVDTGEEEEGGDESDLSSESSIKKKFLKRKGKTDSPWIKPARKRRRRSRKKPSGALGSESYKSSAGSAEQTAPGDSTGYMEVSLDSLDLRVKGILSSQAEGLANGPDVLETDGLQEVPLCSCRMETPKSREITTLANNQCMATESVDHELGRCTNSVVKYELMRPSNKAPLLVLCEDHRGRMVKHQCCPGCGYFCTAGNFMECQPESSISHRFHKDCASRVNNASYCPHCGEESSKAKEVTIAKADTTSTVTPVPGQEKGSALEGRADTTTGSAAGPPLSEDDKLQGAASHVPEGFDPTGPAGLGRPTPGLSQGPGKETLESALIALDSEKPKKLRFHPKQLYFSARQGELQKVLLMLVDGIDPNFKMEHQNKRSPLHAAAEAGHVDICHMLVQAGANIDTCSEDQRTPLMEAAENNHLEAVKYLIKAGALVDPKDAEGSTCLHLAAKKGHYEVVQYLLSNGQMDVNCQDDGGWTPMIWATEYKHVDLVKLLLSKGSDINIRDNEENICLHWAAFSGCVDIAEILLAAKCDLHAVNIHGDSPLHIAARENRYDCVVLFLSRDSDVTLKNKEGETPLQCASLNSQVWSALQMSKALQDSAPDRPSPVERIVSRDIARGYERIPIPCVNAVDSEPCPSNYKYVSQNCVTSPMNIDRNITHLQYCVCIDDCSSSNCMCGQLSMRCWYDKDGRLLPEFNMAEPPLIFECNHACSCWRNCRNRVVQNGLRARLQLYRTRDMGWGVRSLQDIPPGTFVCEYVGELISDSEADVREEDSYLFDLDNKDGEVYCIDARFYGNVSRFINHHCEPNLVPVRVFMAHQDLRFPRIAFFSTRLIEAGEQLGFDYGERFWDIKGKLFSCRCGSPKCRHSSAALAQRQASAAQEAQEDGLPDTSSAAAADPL
Experimental: as §1

[6] = NT1721 20 μM, substrate Nucleosomes 0.05 mg/mL
[7] = read-out: Enzyme % Activity (relative to DMSO controls) Data 1
[8] = read-out: Enzyme % Activity (relative to DMSO controls) Data 2

Sequence of DOT1L (Q8TEK3 whole entry): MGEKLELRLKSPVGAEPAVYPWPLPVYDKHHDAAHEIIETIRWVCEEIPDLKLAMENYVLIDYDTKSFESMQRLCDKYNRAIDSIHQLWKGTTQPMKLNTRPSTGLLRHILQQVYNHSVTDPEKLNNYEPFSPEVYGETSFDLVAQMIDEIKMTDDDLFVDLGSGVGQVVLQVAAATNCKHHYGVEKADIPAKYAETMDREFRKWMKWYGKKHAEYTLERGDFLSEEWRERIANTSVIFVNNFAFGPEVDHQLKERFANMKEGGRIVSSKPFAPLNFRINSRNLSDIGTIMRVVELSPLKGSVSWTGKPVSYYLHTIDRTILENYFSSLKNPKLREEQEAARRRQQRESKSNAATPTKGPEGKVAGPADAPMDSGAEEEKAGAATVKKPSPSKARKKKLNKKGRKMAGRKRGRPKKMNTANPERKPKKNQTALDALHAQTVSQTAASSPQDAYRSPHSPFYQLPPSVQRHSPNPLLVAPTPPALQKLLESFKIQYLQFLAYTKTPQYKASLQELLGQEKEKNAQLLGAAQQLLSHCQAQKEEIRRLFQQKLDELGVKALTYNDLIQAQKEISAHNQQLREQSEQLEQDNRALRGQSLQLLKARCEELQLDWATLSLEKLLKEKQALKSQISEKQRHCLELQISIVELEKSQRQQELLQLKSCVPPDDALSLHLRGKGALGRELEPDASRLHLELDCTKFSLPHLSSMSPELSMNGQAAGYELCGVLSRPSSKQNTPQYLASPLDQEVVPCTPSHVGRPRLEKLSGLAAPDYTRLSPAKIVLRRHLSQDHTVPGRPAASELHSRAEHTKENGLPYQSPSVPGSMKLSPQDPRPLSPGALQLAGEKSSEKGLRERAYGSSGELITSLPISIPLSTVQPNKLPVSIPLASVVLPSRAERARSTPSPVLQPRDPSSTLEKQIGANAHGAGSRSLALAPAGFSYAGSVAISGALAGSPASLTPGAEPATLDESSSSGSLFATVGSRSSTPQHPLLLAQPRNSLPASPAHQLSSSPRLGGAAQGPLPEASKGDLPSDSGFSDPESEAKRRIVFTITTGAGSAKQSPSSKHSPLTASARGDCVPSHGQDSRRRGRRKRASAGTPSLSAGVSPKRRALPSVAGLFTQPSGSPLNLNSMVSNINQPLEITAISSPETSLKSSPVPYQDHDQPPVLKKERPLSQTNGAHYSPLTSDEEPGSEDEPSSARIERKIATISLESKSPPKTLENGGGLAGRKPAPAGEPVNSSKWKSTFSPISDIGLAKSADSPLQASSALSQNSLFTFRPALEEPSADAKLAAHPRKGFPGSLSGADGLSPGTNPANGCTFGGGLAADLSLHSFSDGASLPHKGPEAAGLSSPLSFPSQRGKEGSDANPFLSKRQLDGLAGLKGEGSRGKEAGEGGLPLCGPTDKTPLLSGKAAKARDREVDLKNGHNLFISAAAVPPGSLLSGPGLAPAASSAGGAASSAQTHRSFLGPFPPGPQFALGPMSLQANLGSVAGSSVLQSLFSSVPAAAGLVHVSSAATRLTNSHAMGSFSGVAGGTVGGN
Sequence of PRMT4 (Q86X55 whole entry): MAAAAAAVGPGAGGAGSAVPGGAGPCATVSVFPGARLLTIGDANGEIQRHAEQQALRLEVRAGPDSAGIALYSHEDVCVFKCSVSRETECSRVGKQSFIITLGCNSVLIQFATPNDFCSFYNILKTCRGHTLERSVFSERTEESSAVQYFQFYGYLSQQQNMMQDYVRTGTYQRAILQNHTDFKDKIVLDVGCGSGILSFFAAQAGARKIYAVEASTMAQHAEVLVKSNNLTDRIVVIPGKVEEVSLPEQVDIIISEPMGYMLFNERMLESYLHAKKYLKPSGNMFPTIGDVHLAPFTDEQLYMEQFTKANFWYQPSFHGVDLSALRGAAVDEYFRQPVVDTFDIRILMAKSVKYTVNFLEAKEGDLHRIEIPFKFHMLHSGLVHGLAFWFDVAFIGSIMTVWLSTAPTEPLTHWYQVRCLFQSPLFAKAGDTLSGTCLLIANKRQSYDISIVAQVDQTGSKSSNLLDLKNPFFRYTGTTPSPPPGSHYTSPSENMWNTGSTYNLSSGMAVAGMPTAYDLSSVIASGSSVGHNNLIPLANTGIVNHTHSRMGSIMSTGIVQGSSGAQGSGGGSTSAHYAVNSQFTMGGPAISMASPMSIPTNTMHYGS

Compound: CN1C(=O)[C@@]23C[C@](C)(C#N)[C@H](c4ccc5c(c4)OCO5)N2C(=O)[C@]1(C)SS3 (racemic) [ETP69, Rac-(3S,6S,7S,8aS)-6-(benzo[d][1,3]dioxol-5-yl)-2,3,7-trimethyl-1,4-dioxohexahydro-6H-3,8a-epidithiopyrrolo[1,2-a]pyrazine-7-carbonitrile]
- Enzyme % Activity (relative to DMSO controls) Data 1 [1, 6]: 10.33%
- Enzyme % Activity (relative to DMSO controls) Data 2 [1, 6]: 10.21%
- inhibition relative to DMSO controls ([1]; summary of Table 1): at least 7500
- remaining activity at 20 µM [2, 7]: 40.1%
- remaining activity at 20 µM [2, 8]: 37.1%
- inhibition relative to DMSO controls ([2]; summary of Table 1): at least 7500
- remaining activity at 20 µM [3, 7]: 115%
- remaining activity at 20 µM [3, 8]: 114%
- remaining activity at 20 µM [4, 7]: 104%
- remaining activity at 20 µM [4, 8]: 98.5%
- remaining activity at 2.5 µM [5, 7]: 91.4%
- remaining activity at 2.5 µM [5, 8]: 94.2%
